Source: patent US20230219911A1, “BENZOTHIAZOLE DERIVATIVES AND USES THEREOF” (SHENYANG PHARMACEUTICAL UNIVERSITY, priority 2020, published 2023)

How the values were obtained:
[1] = test system: lipopolysaccharide-injected KM mice, forced swimming test; assay: Measurement of antidepressant effect, lipopolysaccharide / forced swimming test; format: in vivo; conditions: subcutaneous injection 23 hours after lipopolysaccharide, test 1 hour later, FIG. 7
Method: Male KM mice (6 to 8 weeks old) (SPF (Beijing) Biotechnology Co., Ltd.) swam in advance for 10 min, and were injected with lipopolysaccharide (0.5 mg/kg). After 23 hours, the mice were subcutaneously injected with the solutions of the compounds of Examples 12 and 40 or the blank solvent. After 1 hour, the mice were subjected to the forced swimming test for 6 min, and the immobility time (s) in later 4 minute for the mice in each group was recorded.

[2] = test system: carrageenan-induced paw swelling in KM mice; assay: Measurement of anti-inflammatory effect, carrageenan-induced paw swelling; format: in vivo; conditions: intraperitoneal injection 1 hour before carrageenan, FIG. 3
Method: 1 hour in advance, the mice were intraperitoneally injected with the solutions of the compounds of Examples 12, 18, 27, and 40 (10% PEG 400, 10% Tween 80) or the blank solvent, respectively. Taking the initial paw thickness of the mice before modeling as 100%, the changes in the paw thickness of the mice were measured.

[3] = test system: STZ-induced retinopathy model Wistar rats; assay: Improvement effect on diabetic retinopathy, STZ-induced retinopathy model; format: in vivo; conditions: 0.1% eye drops topically every day, after 6 months, FIG. 5
Method: Male Wistar rats (180 to 200 g) (Experimental Animal Center, Hebei Medical University) were intraperitoneally injected with streptozotocin STZ (60 mg/kg) to prepare a diabetic model, and were fed for 3 months to induce a retinopathy model (Miyamoto K, Khosrof S, Bursell S E, et al. Prevention of leukostasis and vascular leakage in streptozotocin-induced diabetic retinopathy via intercellular adhesion molecule-1 inhibition. Proc Natl Acad Sci USA, 1999, 96(19): 10836-10841). The compound of Example 40 was dissolved in 10% hydroxypropyl-p-cyclodextrin solution, to be prepared into eye drops with a content of 0.1% for the compound of Example 40. The rats were topically administrated in eyes every day.

[4] = biological target: T1, sEH enzyme (human recombinant) (Homo sapiens, UniProt P34913); assay: in vitro sEH enzyme activity by fluorescence analysis, single concentration inhibition; format: biochemical; conditions: compound 0.1 μM; human recombinant sEH; PHOME substrate; 37° C. 15 min; read-out: sEH % inhibition, @ 0.1 μM
T1 construct: purchased Cayman Chemical
T1 sequence (P34913 1-555): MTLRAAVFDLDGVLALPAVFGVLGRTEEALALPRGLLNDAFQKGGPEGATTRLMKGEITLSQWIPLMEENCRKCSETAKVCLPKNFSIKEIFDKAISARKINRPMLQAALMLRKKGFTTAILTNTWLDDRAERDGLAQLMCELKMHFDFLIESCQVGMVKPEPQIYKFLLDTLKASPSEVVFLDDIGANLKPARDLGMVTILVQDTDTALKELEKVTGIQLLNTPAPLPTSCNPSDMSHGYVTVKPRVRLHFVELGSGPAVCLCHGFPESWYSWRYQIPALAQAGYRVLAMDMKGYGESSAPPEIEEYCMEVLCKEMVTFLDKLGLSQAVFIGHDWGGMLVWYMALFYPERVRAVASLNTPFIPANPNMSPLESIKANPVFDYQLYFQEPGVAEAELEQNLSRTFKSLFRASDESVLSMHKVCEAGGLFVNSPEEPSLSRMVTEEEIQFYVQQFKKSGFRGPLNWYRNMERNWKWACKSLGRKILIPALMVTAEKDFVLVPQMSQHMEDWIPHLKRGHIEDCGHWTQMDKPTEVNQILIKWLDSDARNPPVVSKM
Method: The benzothiazole skeleton compounds (concentration: 0.1 μM) according to the above formula I of the present invention were tested for the in vitro sEH enzyme activity by fluorescence analysis.
12 μL of sEH enzyme (human recombinant, 0.5 mg/mL, Cayman Chemical) was diluted with 588 μL of buffer (25 mM bis-Tris, pH 7.0). The fluorescent substrate was PHOME (cyano-(6-methoxy-naphthalen-2-yl)-methyl (3-phenyl-oxiranyl)-acetate) in DMSO (10 μM, Cayman Chemical). The compound to be tested was dissolved in 100% DMSO at a concentration of 4 μM. 185 μL of buffer (25 mM bis-Tris, pH 7.0), 5 μL of compound solution, and 5 μL of diluted sEH enzyme were added to the wells of a 96-well plate, and finally 5 μL of substrate solution was added to initiate the reaction. After incubating at 37° C. for 15 min, the fluorescence signal was measured with a microplate reader (excitation wavelength 330 nm, emission wavelength 465 nm).
Inhibition (%)=(F0−F1)/(F0)×100.

[5] = test system: carrageenan inflammatory pain model SD rats; assay: Measurement of analgesic effect, carrageenan inflammatory pain model, hot plate; format: in vivo; conditions: intragastric suspension 15 mg/mL, 1 hour before modeling, FIG. 6
Method: Male SD rats (6 to 8 weeks old) (SPF (Beijing) Biotechnology Co., Ltd.) were subcutaneously injected with 50 μL of 1% λ-carrageenan saline solution at planta to prepare an inflammatory pain model (Rose T E, Morisseau C, Liu J Y, et al. 1-Aryl-3-(1-acylpiperidin-4-yl)urea inhibitors of human and murine soluble epoxide hydrolase: structure-activity relationships, pharmacokinetics, and reduction of inflammatory pain. J Med Chem, 2010, 53(19): 7067-7075). The compounds of Examples 12 and 40 were added to 0.5% sodium carboxymethylcellulose solution and ground to prepare a suspension with a concentration of 15 mg/mL. 1 hour before modeling, the rats were intragastrically administrated. The changes in the paw withdrawal time of rats were measured with a hot plate dolorimeter.

[6] = biological target: T1, sEH enzyme (human recombinant); assay: in vitro IC50 of soluble epoxide hydrolase (sEH) by fluorescence analysis; format: biochemical
Method: The benzothiazole skeleton compounds according to the above formula I of the present invention were tested for the in vitro sEH enzyme activity by fluorescence analysis. […] 12 μL of sEH enzyme (human recombinant, 0.5 mg/mL, Cayman Chemical) was diluted with 588 μL of buffer (25 mM bis-Tris, pH 7.0). […] The inhibitions at different concentrations for the compound were respectively measured in accordance with the inhibition assay, to calculate IC50.

O=C(Nc1ccc(Cl)cc1)Nc1nc2ccc(N(CCN3CCOCC3)C(=O)Nc3ccc(Cl)cc3)cc2s1 [Example 40, 1-{2-[3-(4-chlorophenyl)ureido]benzo[d]thiazol-6-yl}-1-[2-(4-morpholinyl)ethyl]-3-(4-chlorophenyl)urea]
immobility time in forced swimming [1]: significantly reduce the immobility time
carrageenan-induced paw swelling (paw thickness) [2]: significantly inhibit
effect on paw swelling compared with celecoxib [2]: better than that of celecoxib
non-proliferative diabetic retinopathy symptoms (retinal capillary free pericytes, vascular leakage) [3]: significantly alleviated
inhibition at 0.1 µM [4]: 43%
paw withdrawal time in hot plate dolorimeter [5]: significantly prolong the paw withdrawal time
IC50 [6]: 0.11 nM
